How the values were obtained:
[1] = ^177Lu-labeled compound, n = 6
[2] = test system: LNCaP tumor xenograft-bearing CB17-SCID mice; assay: Biodistribution in LNCaP tumor xenograft-bearing CB17-SCID mice
[3] = biological target: PSMA (Homo sapiens, UniProt Q04609); assay: Affinity determinations (IC50), competitive binding assay with ([^125I]I-BA)KuE on LNCaP cells; settings: ([^125I]I-BA)KuE 0.2 nM, HBSS (1% BSA), 4° C., 1 h, cold ^natGa/^natLu complex
[4] = Wangler et al., Bioconjug Chem. 2010; cited from earlier work

Sequence of PSMA (Q04609 whole entry): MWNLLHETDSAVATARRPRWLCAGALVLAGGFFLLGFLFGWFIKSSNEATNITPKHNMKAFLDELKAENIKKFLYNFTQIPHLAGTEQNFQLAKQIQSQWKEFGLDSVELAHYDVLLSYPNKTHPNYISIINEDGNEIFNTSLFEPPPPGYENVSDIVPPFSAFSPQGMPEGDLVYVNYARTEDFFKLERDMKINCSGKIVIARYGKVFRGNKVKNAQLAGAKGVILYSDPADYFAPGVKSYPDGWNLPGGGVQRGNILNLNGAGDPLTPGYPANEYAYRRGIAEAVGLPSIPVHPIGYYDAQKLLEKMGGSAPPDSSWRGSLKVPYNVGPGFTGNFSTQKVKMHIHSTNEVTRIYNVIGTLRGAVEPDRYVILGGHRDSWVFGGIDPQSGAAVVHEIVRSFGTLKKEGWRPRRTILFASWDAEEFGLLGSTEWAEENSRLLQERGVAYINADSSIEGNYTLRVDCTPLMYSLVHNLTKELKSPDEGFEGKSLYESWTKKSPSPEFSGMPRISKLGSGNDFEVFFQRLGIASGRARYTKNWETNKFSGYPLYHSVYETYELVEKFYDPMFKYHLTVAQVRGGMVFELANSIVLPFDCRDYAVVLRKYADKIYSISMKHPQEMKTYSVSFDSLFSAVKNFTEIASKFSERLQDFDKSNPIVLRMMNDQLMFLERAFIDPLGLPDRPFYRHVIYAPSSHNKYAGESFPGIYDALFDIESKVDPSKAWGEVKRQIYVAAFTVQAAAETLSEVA

Compound: CSCC[C@H](NC(=O)CC[C@H](NC(=O)N[C@@H](CCC(=O)N[C@H](CCCNC(=O)CCC(=O)NCCCC[C@@H](NC(=O)[C@@H](CNC(=O)c1ccc([Si](F)(C(C)(C)C)C(C)(C)C)cc1)NC(=O)CN1CCN(CC(=O)O)CCN(CC(=O)O)CCN(CC(=O)O)CC1)C(=O)O)C(=O)O)C(=O)O)C(=O)O)C(=O)O [Compound 5, Proinhibitor I]
- log D [1]: −2.89±0.18

Compound: CC(C)(C)[Si](F)(c1ccc(C(=O)NC[C@@H](NC(=O)CN2CCN(CC(=O)[O-])CCN(CC(=O)[O-])CCN(CC(=O)[O-])CC2)C(=O)N[C@H](CCCCNC(=O)CCC(=O)NCCC[C@@H](NC(=O)CC[C@H](NC(=O)O[C@@H](CCC(=O)O)C(=O)O)C(=O)O)C(=O)O)C(=O)O)cc1)C(C)(C)C.[177Lu+3] [[^177Lu]Lu-3, [^177Lu]Lu-Carbamate I]
- log D [1]: −3.40±0.45
- Biodistribution Adrenals ([2]; 1 h p.i.): 1.46 ± 0.70 % ID/g
- Biodistribution Blood ([2]; 1 h p.i.): 0.97 ± 0.18 % ID/g
- Biodistribution Bone ([2]; 1 h p.i.): 0.18 ± 0.02 % ID/g
- Biodistribution Heart ([2]; 1 h p.i.): 0.36 ± 0.04 % ID/g
- Biodistribution Intestine ([2]; 1 h p.i.): 0.36 ± 0.17 % ID/g
- Biodistribution Kidneys ([2]; 1 h p.i.): 61.8±25.9 % ID/g
- Biodistribution Liver ([2]; 1 h p.i.): 0.87 ± 0.28 % ID/g
- Biodistribution Lung ([2]; 1 h p.i.): 2.88 ± 2.96 % ID/g
- Biodistribution Muscle ([2]; 1 h p.i.): 0.13 ± 0.04 % ID/g
- Biodistribution Pancreas ([2]; 1 h p.i.): 0.25 ± 0.06 % ID/g
- Biodistribution Parotid gland ([2]; 1 h p.i.): 0.62 ± 0.20 % ID/g
- Biodistribution Spleen ([2]; 1 h p.i.): 2.51 ± 0.95 % ID/g
- Biodistribution Stomach ([2]; 1 h p.i.): 0.30 ± 0.09 % ID/g
- Biodistribution Submandibular gland ([2]; 1 h p.i.): 0.37 ± 0.08 % ID/g
- Biodistribution Tumor ([2]; 1 h p.i.): 5.31±0.94 % ID/g
- Ratio Tumor-to-blood ([2]; 1 h p.i.): 5.57 ± 1.18
- Ratio Tumor-to-kidney ([2]; 1 h p.i.): 0.09 ± 0.03
- Ratio Tumor-to-liver ([2]; 1 h p.i.): 6.61 ± 2.19
- Ratio Tumor-to-muscle ([2]; 1 h p.i.): 44.1 ± 9.0
- Ratio Tumor-to-parotid gland ([2]; 1 h p.i.): 9.09 ± 3.13
- Ratio Tumor-to-submandibular gland ([2]; 1 h p.i.): 14.7 ± 3.5
- tumor-to-submandibularis and -parotidea ratios at 1 h p.i. compared to respective values at 24 h p.i. ([2]; 1 h p.i. vs 24 h p.i.): two-fold lower
- Biodistribution Adrenals ([2]; 24 h p.i.): 0.04 ± 0.01 % ID/g
- Biodistribution Blood ([2]; 24 h p.i.): 0.00 ± 0.00 % ID/g
- Biodistribution Bone ([2]; 24 h p.i.): 0.02 ± 0.01 % ID/g
- Biodistribution Heart ([2]; 24 h p.i.): 0.02 ± 0.01 % ID/g
- Biodistribution Intestine ([2]; 24 h p.i.): 0.12 ± 0.06 % ID/g
- Biodistribution Kidneys ([2]; 24 h p.i.): 0.31 ± 0.05 % ID/g
- Biodistribution Liver ([2]; 24 h p.i.): 0.13 ± 0.05 % ID/g
- Biodistribution Lung ([2]; 24 h p.i.): 0.03 ± 0.01 % ID/g
- Biodistribution Muscle ([2]; 24 h p.i.): 0.01 ± 0.01 % ID/g
- Biodistribution Pancreas ([2]; 24 h p.i.): 0.02 ± 0.01 % ID/g
- Biodistribution Parotid gland ([2]; 24 h p.i.): 0.04 ± 0.02 % ID/g
- Biodistribution Spleen ([2]; 24 h p.i.): 0.09 ± 0.01 % ID/g
- Biodistribution Stomach ([2]; 24 h p.i.): 0.06 ± 0.04 % ID/g
- Biodistribution Submandibular gland ([2]; 24 h p.i.): 0.03 ± 0.01 % ID/g
- Biodistribution Tumor ([2]; 24 h p.i.): 1.20 ± 0.55 % ID/g
- Ratio Tumor-to-blood ([2]; 24 h p.i.): 947 ± 652
- Ratio Tumor-to-kidney ([2]; 24 h p.i.): 3.80 ± 1.36
- Ratio Tumor-to-liver ([2]; 24 h p.i.): 8.94 ± 2.94
- Ratio Tumor-to-muscle ([2]; 24 h p.i.): 127 ± 92
- Ratio Tumor-to-parotid gland ([2]; 24 h p.i.): 31.8 ± 9.3
- Ratio Tumor-to-submandibular gland ([2]; 24 h p.i.): 34.5 ± 9.2

Compound: CSCC[C@H](NC(=O)CC[C@H](NC(=O)N[C@@H](CCC(=O)N[C@H](CCCNC(=O)CCC(=O)NCCCC[C@@H](NC(=O)[C@@H](CNC(=O)c1ccc([Si](F)(C(C)(C)C)C(C)(C)C)cc1)NC(=O)CN1CCN(CC(=O)[O-])CCN(CC(=O)[O-])CCN(CC(=O)[O-])CC1)C(=O)O)C(=O)O)C(=O)O)C(=O)O)C(=O)O.[177Lu+3] [[^177Lu]Lu-5, [^177Lu]Lu-Proinhibitor I]
- Biodistribution Adrenals ([2]; 24 h p.i.): 0.00 ± 0.00 % ID/g
- Biodistribution Blood ([2]; 24 h p.i.): 0.00 ± 0.00 % ID/g
- Biodistribution Bone ([2]; 24 h p.i.): 0.00 ± 0.00 % ID/g
- Biodistribution Heart ([2]; 24 h p.i.): 0.01 ± 0.00 % ID/g
- Biodistribution Intestine ([2]; 24 h p.i.): 0.55 ± 0.04 % ID/g
- Biodistribution Kidneys ([2]; 24 h p.i.): 0.48 ± 0.02 % ID/g
- Biodistribution Liver ([2]; 24 h p.i.): 0.05 ± 0.00 % ID/g
- Biodistribution Lung ([2]; 24 h p.i.): 0.33 ± 0.30 % ID/g
- Biodistribution Muscle ([2]; 24 h p.i.): 0.00 ± 0.00 % ID/g
- Biodistribution Pancreas ([2]; 24 h p.i.): 0.01 ± 0.00 % ID/g
- Biodistribution Parotid gland ([2]; 24 h p.i.): 0.02 ± 0.00 % ID/g
- Biodistribution Spleen ([2]; 24 h p.i.): 0.05 ± 0.01 % ID/g
- Biodistribution Stomach ([2]; 24 h p.i.): 0.14 ± 0.07 % ID/g
- Biodistribution Submandibular gland ([2]; 24 h p.i.): 0.02 ± 0.01 % ID/g
- Biodistribution Tumor ([2]; 24 h p.i.): 0.09±0.02 % ID/g

Compound: CCCCCC[C@H](NC(=O)CC[C@H](NC(=O)N[C@@H](CCC(=O)N[C@H](CCCNC(=O)CCC(=O)NCCCC[C@@H](NC(=O)[C@@H](CNC(=O)c1ccc([Si](F)(C(C)(C)C)C(C)(C)C)cc1)NC(=O)CN1CCN(CC(=O)[O-])CCN(CC(=O)[O-])CCN(CC(=O)[O-])CC1)C(=O)O)C(=O)O)C(=O)O)C(=O)O)C(=O)O.[177Lu+3] [[^177Lu]Lu-6, [^177Lu]Lu-Proinhibitor II]
- Biodistribution Adrenals ([2]; 24 h p.i.): 0.04 ± 0.00 % ID/g
- Biodistribution Blood ([2]; 24 h p.i.): 0.00 ± 0.00 % ID/g
- Biodistribution Bone ([2]; 24 h p.i.): 0.02 ± 0.01 % ID/g
- Biodistribution Heart ([2]; 24 h p.i.): 0.03 ± 0.01 % ID/g
- Biodistribution Intestine ([2]; 24 h p.i.): 0.18 ± 0.06 % ID/g
- Biodistribution Kidneys ([2]; 24 h p.i.): 2.36 ± 0.39 % ID/g
- Biodistribution Liver ([2]; 24 h p.i.): 0.14 ± 0.02 % ID/g
- Biodistribution Lung ([2]; 24 h p.i.): 0.10 ± 0.08 % ID/g
- Biodistribution Muscle ([2]; 24 h p.i.): 0.02 ± 0.00 % ID/g
- Biodistribution Pancreas ([2]; 24 h p.i.): 0.03 ± 0.01 % ID/g
- Biodistribution Parotid gland ([2]; 24 h p.i.): 0.09 ± 0.03 % ID/g
- Biodistribution Spleen ([2]; 24 h p.i.): 0.11 ± 0.03 % ID/g
- Biodistribution Stomach ([2]; 24 h p.i.): 0.05 ± 0.01 % ID/g
- Biodistribution Submandibular gland ([2]; 24 h p.i.): 0.07 ± 0.01 % ID/g
- Biodistribution Tumor ([2]; 24 h p.i.): 0.33±0.11 % ID/g

Compound: CCCCCC[C@H](NC(=O)[C@H](CCC(=O)O)NC(=O)N[C@@H](CCC(=O)N[C@H](CCCNC(=O)CCC(=O)NCCCC[C@@H](NC(=O)[C@@H](CNC(=O)c1ccc([Si](F)(C(C)(C)C)C(C)(C)C)cc1)NC(=O)CN1CCN(CC(=O)[O-])CCN(CC(=O)[O-])CCN(CC(=O)[O-])CC1)C(=O)O)C(=O)O)C(=O)O)C(=O)O.[177Lu+3] [[^177Lu]Lu-7, [^177Lu]Lu-Proinhibitor III]
- Biodistribution Adrenals ([2]; 24 h p.i.): 0.03 ± 0.01 % ID/g
- Biodistribution Blood ([2]; 24 h p.i.): 0.01 ± 0.00 % ID/g
- Biodistribution Bone ([2]; 24 h p.i.): 0.04 ± 0.01 % ID/g
- Biodistribution Heart ([2]; 24 h p.i.): 0.03 ± 0.01 % ID/g
- Biodistribution Intestine ([2]; 24 h p.i.): 0.10 ± 0.05 % ID/g
- Biodistribution Kidneys ([2]; 24 h p.i.): 2.04 ± 0.75 % ID/g
- Biodistribution Liver ([2]; 24 h p.i.): 0.17 ± 0.05 % ID/g
- Biodistribution Lung ([2]; 24 h p.i.): 0.04 ± 0.01 % ID/g
- Biodistribution Muscle ([2]; 24 h p.i.): 0.01 ± 0.00 % ID/g
- Biodistribution Pancreas ([2]; 24 h p.i.): 0.02 ± 0.00 % ID/g
- Biodistribution Parotid gland ([2]; 24 h p.i.): 0.06 ± 0.01 % ID/g
- Biodistribution Spleen ([2]; 24 h p.i.): 0.08 ± 0.02 % ID/g
- Biodistribution Stomach ([2]; 24 h p.i.): 0.04 ± 0.01 % ID/g
- Biodistribution Submandibular gland ([2]; 24 h p.i.): 0.05 ± 0.02 % ID/g
- Biodistribution Tumor ([2]; 24 h p.i.): 0.14 ± 0.05 % ID/g

Compound: CC(C)(C)[Si](F)(c1ccc(C(=O)NCC(NC(=O)CN2CCN(CC(=O)[O-])CCN(CC(=O)[O-])CCN(CC(=O)[O-])CC2)C(=O)NC(CCCCNC(=O)CCC(=O)NCCCC(NC(=O)CCC(NC(=O)NC(CCC(=O)O)C(=O)O)C(=O)O)C(=O)O)C(=O)O)cc1)C(C)(C)C.[Lu+3] (centres unmarked) [^natLu-1, ^natLu-PSMA-10, reference compound]
- IC50 [3]: 7.2 ± 3.7 nM

Compound: CCCCC[C@H](NC(=O)N[C@@H](CCC(=O)N[C@H](CCCNC(=O)CCC(=O)NCCCC[C@@H](NC(=O)[C@@H](CNC(=O)c1ccc([Si](F)(C(C)(C)C)C(C)(C)C)cc1)NC(=O)CN1CCN(CC(=O)[O-])CCN(CC(=O)[O-])CCN(CC(=O)[O-])CC1)C(=O)O)C(=O)O)C(=O)O)C(=O)O.[Lu+3] [^natLu-8, ^natLu-2-Aminoheptanoic Acid Derivative 8]
- IC50 [3]: > 2000 nM

Compound: CC(C)(C)[Si](F)(c1ccc(C(=O)NCC(NC(=O)CN2CCN(CC(=O)[O-])CCN(CC(=O)[O-])CCN(CC(=O)[O-])CC2)C(=O)NC(CCCCNC(=O)CCC(=O)NCCCC(NC(=O)CCC(NC(=O)NC(Cc2ccco2)C(=O)O)C(=O)O)C(=O)O)C(=O)O)cc1)C(C)(C)C.[Lu+3] (centres unmarked) [^natLu-9, ^natLu-Furyl Derivative 9]
- IC50 [3]: > 440 nM

Compound: CC(C)(C)[Si](F)(c1ccc(C(=O)NCC(NC(=O)CN2CCN(CC(=O)[O-])CCN(CC(=O)[O-])CCN(CC(=O)[O-])CC2)C(=O)NC(CCCCNC(=O)CCC(=O)NCCCC(NC(=O)CCC(NC(=O)NC(CCc2nnn[nH]2)C(=O)O)C(=O)O)C(=O)O)C(=O)O)cc1)C(C)(C)C.[Lu+3] (centres unmarked) [^natLu-11, ^natLu-Tetrazole Derivative 11]
- IC50 [3]: 16.4 ± 3.8 nM

Compound: SIFA-Asn(AcNH-p-Glc)-PEG-Tyr^3-octreotate
- log P(ow) [4]: 0.96
